Laboratory results reported in PubChem BioAssay AID1918939 (Molecular Pharmacology Branch, DTP, NCI, 2023).
“And” between values parts separate entries of the source, which are not always exact repeats. Equal values may be shown once.

System: 653999-131-R-J2-PDC complex spheroid viability
Test: Anticancer human tumor 653999-131-R-J2-PDC patient-derived lung adenocarcinoma cell line growth inhibition
Conditions: for viability, T/C: stronger effect = lower value; active means viability on the fitted dose curve at most 10% of control; inactive means the rest
Source text: Multicellular complex tumor spheroid response to LSD1 Inhibitor Iadademstat in combination with a variety of drugs and investigational agents in selected tumor cell lines
The current study was undertaken to assess response to LSD1 inhibitors in combination with standard-of-care drugs and investigational agents in solid tumor complex spheroid models as well as in the K-562 leukemia. Complex spheroids include a stromal component modeled by human endothelial cells (HUVEC) and fibroblasts modeled by human mesenchymal stem cells (MSCs). The concentration ranges selected for each drug and investigational agent were based upon clinically achievable concentrations if the clinical Cmax of the agent was known.
Compounds. The drugs and investigational agents used in this study are listed on Table 1. All of the agents used, including staurosporine (NSC755774) and gemcitabine (NSC613327), were obtained from the Developmental Therapeutics Program, NCI. FDA-approved anticancer drugs are available from the NCI at http://dtp.nci.nih.gov/branches/dscb/oncology_drugset_explanation.html. Drugs and investigational agents were >95% pure by proton nuclear magnetic resonance (NMR) and liquid chromatography/mass spectrometry (LC/MS). Stock solutions were prepared at 400x in DMSO, stored at -70 degrees C, and diluted in fresh medium prior to their use. The final concentration of DMSO in cell culture wells never exceeded 0.25% (v/v). The FDA-approved anticancer drug set is available from the Developmental Therapeutics Program at https://dtp.cancer.gov/organization/dscb/obtaining/available_plates.htm. All drugs and investigational agents were tested over a range starting from a high concentration at or near the clinical Cmax and decreasing in half-log increments. If the clinical Cmax for an agent had not been determined, the highest concentration tested was 10 microM.
Cell Lines. The patient-derived cancer cell (PDC) lines: 292921-168-R-J2-PDC, K24384-001-R-PDC, and 521955-158-R2-J5-PDC pancreatic carcinomas, 556581-035-R-J1 ovarian carcinoma, 324938-238-R-J1-PDC, 855422-203-R-J1-PDC and 883617-216-R-J1-PDC urothelial bladder carcinomas, 743489-274-T-PDC renal cell carcinoma, 138582-R-J1 Merkel cell tumor, K60290-347-R-J1 and K57222-313-R-J1-PDC glioblastomas, 653999-131-R-J2-PDC, LG0703-F948-PDC, and 349418-098-R-PDC non-small cell lung carcinomas, 885512-296-R-J2-PDC, 171881-019-R-J1-PDC breast carcinomas and 186277-243-T-J2-PDC and 233499-124-R-J2-PDC colon carcinomas were obtained from the NCI Patient-Derived Models Repository (PDMR, https://pdmr.cancer.gov). The established cell lines NCI/ADR-RES (RRID:CVCL_14520 and OVCAR-5 (RRID:CVCL_1628) ovarian carcinomas, 786-O (RRID:CVCL_1051) and A498 (RRID:CVCL_A498) renal cell carcinoma, NCI-H211 (ATCC, cat. CRL-5824; RRID:CVCL_1529), NCI-H196 (ATCC, cat. CRL-5823, RRID:CVCL_1509), SW 1271 (ATCC, cat. CRL-2177, RRID:CVCL_1716) and NCI-H1876 (ATCC, cat. CRL-5902, RRID:CVCL_1503) small cell lung carcinomas, MDA-MB-231 (RRID:CVCL_0062) and MDA-MB-468 (RRID:CVCL_0419)breast carcinomas (10-12). Pooled donor human umbilical vein endothelial cells (HUVEC, Lonza, cat. CC-2519) and human mesenchymal stem cells (hMSC, Lonza, cat. PT-2501) were purchased from Lonza (Walkersville, MD).
Cell Culture. All cells were maintained in an incubator at 37 degrees C and 5% CO2 with 95% humidity. The PDC lines were cultured according to standard operating procedures established by the NCI PDMR (https://pdmr.cancer.gov). Briefly all PDCs were thawed and cultured in Matrigel-coated flasks prepared with a working solution of 1X Ham's F-12 nutrient mix, without supplementation (Invitrogen, Waltham, MA, cat. 11765054), 100 U/mL penicillin-streptomycin (Invitrogen, cat. 15140122), and 2.5% Matrigel (Corning Inc., Corning, NY, cat. 354248) for the first three passages. […]
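Further: spheroids exposed to agents for seven days before readout.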

O=C(C=Cn1cnc(-c2cc(C(F)(F)F)cc(C(F)(F)F)c2)n1)NNc1cnccn1
16.9 nM and 76.1 nM: IC50 (curve of compound)
inactive: viability, T/C (compound 0.00316 µM) 63.9% and 63.1% | viability, T/C (compound 0.01 µM) 51.8% and 58% | viability, T/C (compound 0.0316 µM) 43.4% and 58.5% | viability, T/C (compound 0.1 µM) 40.6% and 47.5% | viability, T/C (compound 0.316 µM) 31.4% and 38.6% | viability, T/C (compound 1 µM) 21.8% and 36.8%

CC1COCCN1c1cc(-c2ccnn2C)c2ccnc(-c3ccn[nH]3)c2n1 (stereo not drawn)
inactive: viability, T/C (compound 0.00316 µM) 81.7% and 58.4% | viability, T/C (compound 0.01 µM) 66.4% and 56.5% | viability, T/C (compound 0.0316 µM) 36.3% and 41.4% | viability, T/C (compound 0.1 µM) 31.9% and 35.9% | viability, T/C (compound 0.316 µM) 29.8% and 45.5% | viability, T/C (compound 1 µM) 30.5% and 53.4%
18.8 nM and 18.2 nM: IC50 (curve of compound)

CC[C@@]1(O)C(=O)OCc2c1cc1n(c2=O)Cc2cc3c(CN(C)C)c(O)ccc3nc2-1
inactive: viability, T/C (compound 0.000316 µM) 108% and 99% | viability, T/C (compound 0.001 µM) 88.5% and 100% | viability, T/C (compound 0.00316 µM) 66% and 83.8% | viability, T/C (compound 0.01 µM) 41.8% and 55.4% | viability, T/C (compound 0.0316 µM) 34.3% and 41.5% | viability, T/C (compound 0.1 µM) 22.4% and 29.9%
7.34 nM and 15.4 nM: IC50 (curve of compound)

Nc1ncn(C2CC(O)C(CO)S2)c(=O)n1 (stereo not drawn) + NC1CC1c1ccc(-c2cccc(O)c2)cc1
> 300 nM: IC50 (curve of first compound, second compound 0.1 µM) | IC50 (curve of first compound, second compound 0.316 µM) | IC50 (curve of first compound, second compound 1 µM) | IC50 (curve of first compound, second compound 3.16 µM) | IC50 (curve of first compound, second compound 10 µM)
inactive: viability, T/C (second compound 0.1 µM, first compound 0.000949 µM) 100% | viability, T/C (second compound 0.1 µM, first compound 0.003 µM) 90.5% | viability, T/C (second compound 0.1 µM, first compound 0.00949 µM) 104% | viability, T/C (second compound 0.1 µM, first compound 0.03 µM) 91% | viability, T/C (second compound 0.1 µM, first compound 0.0949 µM) 78.1% | viability, T/C (second compound 0.1 µM, first compound 0.3 µM) 64.8% | viability, T/C (second compound 0.316 µM, first compound 0.000949 µM) 94.9% | viability, T/C (second compound 0.316 µM, first compound 0.003 µM) 100% | viability, T/C (second compound 0.316 µM, first compound 0.00949 µM) 77.4% | viability, T/C (second compound 0.316 µM, first compound 0.03 µM) 84.8% | viability, T/C (second compound 0.316 µM, first compound 0.0949 µM) 87% | viability, T/C (second compound 0.316 µM, first compound 0.3 µM) 67.6% | viability, T/C (second compound 1 µM, first compound 0.000949 µM) 81.8% | viability, T/C (second compound 1 µM, first compound 0.003 µM) 101% | viability, T/C (second compound 1 µM, first compound 0.00949 µM) 102% | viability, T/C (second compound 1 µM, first compound 0.03 µM) 88.8% | viability, T/C (second compound 1 µM, first compound 0.0949 µM) 80.4% | viability, T/C (second compound 1 µM, first compound 0.3 µM) 67.5% | viability, T/C (second compound 3.16 µM, first compound 0.000949 µM) 102% | viability, T/C (second compound 3.16 µM, first compound 0.003 µM) 94.2% | viability, T/C (second compound 3.16 µM, first compound 0.00949 µM) 98.2% | viability, T/C (second compound 3.16 µM, first compound 0.03 µM) 85.1% | viability, T/C (second compound 3.16 µM, first compound 0.0949 µM) 93.8% | viability, T/C (second compound 3.16 µM, first compound 0.3 µM) 77% | viability, T/C (second compound 10 µM, first compound 0.000949 µM) 94.3% | viability, T/C (second compound 10 µM, first compound 0.003 µM) 92.9% | viability, T/C (second compound 10 µM, first compound 0.00949 µM) 102% | viability, T/C (second compound 10 µM, first compound 0.03 µM) 79.6% | viability, T/C (second compound 10 µM, first compound 0.0949 µM) 90.3% | viability, T/C (second compound 10 µM, first compound 0.3 µM) 74.8%

Cn1ncnc1C1c2n[nH]c(=O)c3cc(F)cc(c23)NC1c1ccc(F)cc1 (stereo not drawn)
> 100 nM: IC50 (curve of compound)
inactive: viability, T/C (compound 0.000316 µM) 97.3% and 103% | viability, T/C (compound 0.001 µM) 92.2% and 108% | viability, T/C (compound 0.00316 µM) 96% and 98.3% | viability, T/C (compound 0.01 µM) 99.2% and 101% | viability, T/C (compound 0.0316 µM) 89.6% and 93.2% | viability, T/C (compound 0.1 µM) 94% and 91.3%
